Source: ChEMBL document CHEMBL5390278, “PPARα/γ-Targeting Amorfrutin Phytocannabinoids from Aerial Parts of Glycyrrhiza foetida” (J Nat Prod, 2023)
Active and inactive are the calls of the source. No cut-off for these calls is given here.

Assays:
COS-7 = assay: Cytotoxicity against African green monkey COS-7 cells assessed as cell viability at 1 to 30 uM incubated for 24 hrs by MTT assay; assay type: toxicity, cell-based; conditions: chlorocebus aethiops, cos-7, 24 h, dose 1-30 µM
[1] = target: T1, Peroxisome proliferator-activated receptor gamma (Homo sapiens) (UniProt P37231); assay: Agonist activity at human PPAR gamma transfected in African green monkey COS-7 cells co-transfected with CMX-Gal4 fused hPPARgamma/TK-MH100x4-Luc/renilla luciferase at 10 uM incubated for 24 hrs by Dual-Glo luciferase assay; assay type: cell-based; conditions: filed as agonist
T1 sequence (whole entry): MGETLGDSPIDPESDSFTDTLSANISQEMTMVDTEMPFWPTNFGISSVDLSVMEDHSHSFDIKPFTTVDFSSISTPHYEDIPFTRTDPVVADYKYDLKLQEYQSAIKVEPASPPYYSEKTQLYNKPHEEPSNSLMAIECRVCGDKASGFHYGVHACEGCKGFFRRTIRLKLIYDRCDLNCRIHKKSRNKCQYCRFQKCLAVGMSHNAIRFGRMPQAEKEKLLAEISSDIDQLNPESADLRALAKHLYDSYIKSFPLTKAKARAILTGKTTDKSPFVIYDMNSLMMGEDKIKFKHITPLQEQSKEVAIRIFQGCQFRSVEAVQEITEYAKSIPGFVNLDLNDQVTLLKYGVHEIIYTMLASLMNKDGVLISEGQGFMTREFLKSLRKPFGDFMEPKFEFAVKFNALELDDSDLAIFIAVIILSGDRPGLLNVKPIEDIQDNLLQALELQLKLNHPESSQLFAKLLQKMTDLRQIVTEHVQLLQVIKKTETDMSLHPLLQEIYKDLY

[2] = target: T2, Peroxisome proliferator-activated receptor alpha (Homo sapiens) (UniProt Q07869); assay: Agonist activity at human PPAR alpha transfected in African green monkey COS-7 cells co-transfected with CMX-Gal4 fused hPPARalpha/TK-MH100x4-Luc/renilla luciferase assessed as fold increase in luciferase activity at 10 uM incubated for 24 hrs by Dual-Glo luciferase assay; assay type: cell-based; conditions: filed as agonist
T2 sequence (whole entry): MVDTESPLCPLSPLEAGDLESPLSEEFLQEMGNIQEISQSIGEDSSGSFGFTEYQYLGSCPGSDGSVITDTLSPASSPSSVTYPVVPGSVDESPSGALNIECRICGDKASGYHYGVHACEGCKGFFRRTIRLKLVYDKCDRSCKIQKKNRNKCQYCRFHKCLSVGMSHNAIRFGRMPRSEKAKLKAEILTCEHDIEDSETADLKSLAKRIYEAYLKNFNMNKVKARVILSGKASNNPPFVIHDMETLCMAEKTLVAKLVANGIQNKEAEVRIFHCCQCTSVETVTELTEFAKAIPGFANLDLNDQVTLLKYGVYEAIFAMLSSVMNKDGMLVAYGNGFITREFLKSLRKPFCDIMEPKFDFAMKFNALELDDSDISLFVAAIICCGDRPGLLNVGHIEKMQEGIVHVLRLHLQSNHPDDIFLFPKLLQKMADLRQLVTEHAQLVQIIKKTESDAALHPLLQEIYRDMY

[3] = target: T1, Peroxisome proliferator-activated receptor gamma (Homo sapiens); assay: Agonist activity at human PPAR gamma transfected in African green monkey COS-7 cells co-transfected with CMX-Gal4 fused hPPARgamma/TK-MH100x4-Luc/renilla luciferase assessed as fold increase in luciferase activity at 10 uM incubated for 24 hrs by Dual-Glo luciferase assay; assay type: cell-based

fold change (FC) [2] | Compound | Activity (COS-7) | further results
– | COc1cc(CCc2ccccc2)c(C(=O)O)c2c1[C@H](OC)[C@@H](C(C)(C)O)O2 | Toxic | –
– | COc1c(CC=C(C)C)c(O)c(C(=O)O)c(CCc2ccccc2)c1CC=C(C)C | – | Activity [1]: Active
5 | CCCCCc1cc(OC)c2c(c1C(=O)O)OC(C(C)(C)O)C2 (racemic) | – | –
5 | COc1cc(CCc2ccccc2)c(C(=O)O)c(O)c1CC=C(C)C | – | Activity [1]: Active; fold change (FC) [3]: > 20
– | COc1cc(/C=C/c2ccccc2)cc(OC)c1CC=C(C)C | Toxic | –
– | CC(C)=CCc1c(O)cc(CCc2ccccc2)c(CC=C(C)C)c1O | Toxic | –
– | COc1cc(C#Cc2ccccc2)cc(OC)c1CC=C(C)C | Toxic | –
– | COc1cc(CCc2ccccc2)cc(O)c1CC=C(C)C | Toxic | –
– | CCCCCc1cc(OC)c(CC=C(C)C)c(O)c1C(=O)O | Toxic | –
– | COc1cc(CCc2ccccc2)cc(OC)c1CC=C(C)C | Toxic | –
– | COc1cc(/C=C/c2ccccc2)cc(O)c1CC=C(C)C | Toxic | –
5 | COc1cc(CCc2ccccc2)c(C(=O)O)c2occc12 | – | –
– | CC(C)=CCc1c(O)cc(CCc2ccccc2)cc1O | Toxic | –
5 | C=C(C)C(O)Cc1c(OC)cc(CCc2ccccc2)c(C(=O)O)c1O (racemic) | – | Activity [1]: Active
5 | CCCCCc1cc(O)c(CC=C(C)C)c(O)c1CC=C(C)C | – | –

Compound | fold change (FC) [2] | Activity (COS-7) | further results
C=C(C)C(Cc1c(OC)cc(CCc2ccccc2)c(C(=O)O)c1O)OO (racemic) | 5 | – | Activity [1]: Active
C=C(C)C(O)Cc1c(OC)cc(CCCCC)c(C(=O)O)c1O (racemic) | 5 | – | Activity [1]: Active
